Patent US20200108034A1, “USE OF CITRULLINE AND GLUTATHIONE TO INCREASE MUSCLE MASS” (KYOWA HAKKO BIO CO., LTD., priority 2017, published 2020)

What was measured:
Type in all cases: in vivo, human
[1] = Serum general clinical chemistry markers, day 0 and day 57; conditions: mean ± SEM, N = 25
Experimental: (§1) Seventy-five resistance-trained (e.g., regular, resistance training thrice weekly for at least one year prior to the study) males between the ages of 18-35 and having a BMI between 18.5 and 30 kg/m^2 were divided into 3 groups of 25, wherein each group received one of the following supplements: (A) 2 g/day L-citrulline (CIT) and 200 mg/day glutathione (GSH), (B) 2 g/day L-citrulline malate only, or (C) 2.52 g/day of cellulose placebo. Participants were matched by total body mass and then randomly assigned a supplementation protocol in a double-blind fashion. Participants took their supplements one hour prior to their workout on exercise days. On non-exercise days, participants took their supplements in the morning with breakfast.
(§2) Venous blood samples were obtained from the antecubital vein using a standard VACUTAINER™ apparatus into one tube for serum separation and one for whole blood. The serum separation tubes were allowed to stand at room temperature for 15 minutes and then centrifuged for 10 minutes, and serum was removed and placed into a microfuge tube. Blood samples were obtained prior to the first dose of supplement and prior to beginning the resistance training program (day 0) and after eight weeks of supplementation and resistance training (day 57).
(§3) Serum samples were assayed for the following general clinical chemistry markers: glucose, total protein, blood urea nitrogen, creatinine, BUN/creatinine ratio, AST, ALT, albumin, globulin, total bilirubin, alkaline phosphatase. Whole blood samples were assayed for standard cell blood counts with percentage differentials, such as hemoglobin, red blood cell counts, white blood cell counts, neutrophils, lymphocytes, monocytes, eosinophils, and basophils.

[2] = Whole blood cell counts with differentials, day 0 and day 57; conditions: mean ± SEM; for Absolute basophils / Absolute eosinophils / Absolute lymphocytes / Absolute monocytes / Absolute neutrophils / Hb / Platelet / RBC / WBC: N = 25; for Red cell distribution width: N = 25, in % (unit assumed)
Experimental: as §1, §2, §3

[3] = Body composition (body mass, DEXA fat mass, bioimpedance total body water) at days 0, 29, 57; conditions: mean ± SEM, N = 25; for Fat Mass: DEXA; for Total Body Water: bioelectrical impedance
Experimental: as §1
(§4) Body composition was measured at days 0, 29, and 57 during the study. Total body mass (kg) was determined on a standard dual beam balance scale (Detecto, Bridgeview, Ill.). Percent body fat, fat mass, and fat-free mass were determined using DEXA (Discovery Series W, commercially available from Hologic, Waltham, Mass.). Quality control calibration procedures were performed on a spine phantom (X-CALIBER Model DPA/QDR-1 anthropometric spine phantom, commercially available from Hologic, Waltham, Mass.) and a density step calibration phantom prior to each testing session. Total body water was determined with bioelectrical impedance spectroscopy (Tanita Inc., Arlington Heights, Ill.) using a low energy, high frequency current (500 micro amps at a frequency of 50 kHz).
Participants engaged in a supervised, periodized 4 day per week resistance-training program split into two upper and two lower extremity workouts per week for a total of 8 weeks. Prior to the workout, participants performed a standardized series of stretching exercises. The participants then performed an upper-body resistance-training program consisting of bench press, lat pull, shoulder press, seated row, shoulder shrugs, chest fly, biceps curl, triceps press down, and abdominal curls, twice per week, and a lower-body program consisting of leg press, back extension, step ups, leg curls, leg extension, heel raises, and abdominal crunches, also performed twice per week. Participants performed 3 sets of 10 repetitions with as much weight as they could lift per set (typically 70 to 80% of 1-RM). Rest periods between exercises and sets lasted no longer than 2 minutes.

[4] = Change in muscle mass after 8-week resistance training with supplementation
Experimental: as §1
as §4, with “Quality control calibration procedures were performed on a spine phantom (X-CALIBER Model DPA/QDR-1 anthropometric spine phantom, commercially available from Hologic, Waltham, Mass.) and a density step calibration phantom prior to each testing session.” left out, “kHz). […]” for “kHz).”

## NC(=O)NCCC[C@H](N)C(=O)O.O=C(O)CC(O)C(=O)O [CIT-malate, L-citrulline malate]
[1]; 8 weeks
  ALP: 73.0 ± 4.5 IU/L
  ALT: 22.9 ± 1.8 IU/L
  AST: 21.3 ± 1.3 IU/L
  Albumin: 4.7 ± 0.05 g/dL
  Albumin/Globulin: 1.9 ± 0.06
  Bilirubin: 0.6 ± 0.05 mg/dL
  Creatinine: 1.1 ± 0.04 mg/dL
  Glucose: 101.8 ± 3.9 mg/dL
  Total protein: 7.2 ± 0.1 g/dL
  Urea nitrogen: 16.9 ± 0.7 mg/dL
[1]; Baseline
  ALP: 74.9 ± 4.5 IU/L
  ALT: 24.9 ± 2.4 IU/L
  AST: 23.8 ± 1.5 IU/L
  Albumin: 4.9 ± 0.05 g/dL
  Albumin/Globulin: 2.0 ± 0.07
  Bilirubin: 0.7 ± 0.08 mg/dL
  Creatinine: 1.1 ± 0.03 mg/dL
  Glucose: 97.5 ± 3.4 mg/dL
  Total protein: 7.4 ± 0.1 g/dL
  Urea nitrogen: 16.8 ± 0.8 mg/dL
[2]; 8 weeks
  Absolute basophils: 26.8 ± 3.2 µL⁻¹
  Absolute eosinophils: 312.8 ± 79.5 µL⁻¹
  Absolute lymphocytes: 1902.7 ± 85.5 µL⁻¹
  Absolute monocytes: 370.5 ± 30.7 µL⁻¹
  Absolute neutrophils: 3292.4 ± 318.9 µL⁻¹
  Hb: 15.0 ± 0.1 g/dL
  Platelet: 212.4 ± 8.0 ×10^3/μL
  RBC: 5.1 ± 0.06 ×10^6/μL
  WBC: 5.7 ± 0.3 ×10^3/μL
  Red cell distribution width: 13.5 ± 0.4
[2]; Baseline
  Absolute basophils: 31.2 ± 3.3 µL⁻¹
  Absolute eosinophils: 130.5 ± 16.6 µL⁻¹
  Absolute lymphocytes: 2032.1 ± 131.4 µL⁻¹
  Absolute monocytes: 371.8 ± 25.6 µL⁻¹
  Absolute neutrophils: 3652.2 ± 306.1 µL⁻¹
  Hb: 15.1 ± 0.2 g/dL
  Platelet: 218.2 ± 10.9 ×10^3/μL
  RBC: 5.1 ± 0.07 ×10^6/μL
  WBC: 6.2 ± 0.3 ×10^3/μL
  Red cell distribution width: 13.3 ± 0.1
[3]; Baseline
  Fat Mass: 11.2 ± 1.04 kg
  Total Body Water: 47.9 ± 1.14 kg
  Body Mass: 79.2 ± 2.50 kg
[3]; supplementation week 4
  Fat Mass: 11.5 ± 0.92 kg
  Total Body Water: 48.1 ± 1.16 kg
  Body Mass: 79.5 ± 2.52 kg
[3]; supplementation week 8
  Fat Mass: 11.9 ± 0.96 kg
  Total Body Water: 48.4 ± 1.14 kg
  Body Mass: 80.1 ± 2.42 kg
[4]; FIG. 2, 25 per group
  participants who displayed increases in muscle mass at both 4 and 8 weeks: 36%
[4]; at 4 and 8 weeks, vs placebo, heavy resistance training, FIGS. 1A and 1B
  change in muscle mass: increase in muscle mass compared to persons receiving only placebo
